Test results reported in ChEMBL document CHEMBL3779774, “Efficient synthesis of novel disubstituted pyrido[3,4-b]pyrazines for the design of protein kinase inhibitors” (Medchemcomm, 2016).
pIC50: −log10 of the molar value.

Tests used:
[1] = biological target: Mitogen-activated protein kinase 1 (Homo sapiens, UniProt P28482); assay: Inhibition of recombinant ERK2 (unknown origin) after 1 hr by Alphascreen assay
[2] = biological target: Homeodomain-interacting protein kinase 1 (Homo sapiens, UniProt Q86Z02); assay: Inhibition of N-terminal His6-tagged recombinant human HIPK1 (158 to 555 residues) after 1 hr by Alphascreen assay
[3] = biological target: Serine/threonine-protein kinase pim-1 (Homo sapiens, UniProt P11309); assay: Inhibition of N-terminal GST-tagged recombinant human full length Pim-1 expressed in Escherichia coli after 1 hr by Alphascreen assay
Sequence of Serine/threonine-protein kinase pim-1 (P11309 whole entry): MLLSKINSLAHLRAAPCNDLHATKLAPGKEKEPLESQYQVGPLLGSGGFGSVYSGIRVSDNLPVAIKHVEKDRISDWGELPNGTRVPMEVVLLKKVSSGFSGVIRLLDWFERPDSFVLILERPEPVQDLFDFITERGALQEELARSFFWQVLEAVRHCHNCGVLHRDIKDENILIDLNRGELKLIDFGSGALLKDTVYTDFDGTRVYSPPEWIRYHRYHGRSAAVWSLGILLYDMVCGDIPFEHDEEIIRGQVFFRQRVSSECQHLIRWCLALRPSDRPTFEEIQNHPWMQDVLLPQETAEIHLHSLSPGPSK

[4] = biological target: Vascular endothelial growth factor receptor 2 (Homo sapiens, UniProt P35968); assay: Inhibition of N-terminal His6-tagged human recombinant KDR (790 to end residues) expressed in baculovirus infected insect Sf21 cells after 1 hr by Alphascreen assay
Sequence of Vascular endothelial growth factor receptor 2 (P35968 whole entry): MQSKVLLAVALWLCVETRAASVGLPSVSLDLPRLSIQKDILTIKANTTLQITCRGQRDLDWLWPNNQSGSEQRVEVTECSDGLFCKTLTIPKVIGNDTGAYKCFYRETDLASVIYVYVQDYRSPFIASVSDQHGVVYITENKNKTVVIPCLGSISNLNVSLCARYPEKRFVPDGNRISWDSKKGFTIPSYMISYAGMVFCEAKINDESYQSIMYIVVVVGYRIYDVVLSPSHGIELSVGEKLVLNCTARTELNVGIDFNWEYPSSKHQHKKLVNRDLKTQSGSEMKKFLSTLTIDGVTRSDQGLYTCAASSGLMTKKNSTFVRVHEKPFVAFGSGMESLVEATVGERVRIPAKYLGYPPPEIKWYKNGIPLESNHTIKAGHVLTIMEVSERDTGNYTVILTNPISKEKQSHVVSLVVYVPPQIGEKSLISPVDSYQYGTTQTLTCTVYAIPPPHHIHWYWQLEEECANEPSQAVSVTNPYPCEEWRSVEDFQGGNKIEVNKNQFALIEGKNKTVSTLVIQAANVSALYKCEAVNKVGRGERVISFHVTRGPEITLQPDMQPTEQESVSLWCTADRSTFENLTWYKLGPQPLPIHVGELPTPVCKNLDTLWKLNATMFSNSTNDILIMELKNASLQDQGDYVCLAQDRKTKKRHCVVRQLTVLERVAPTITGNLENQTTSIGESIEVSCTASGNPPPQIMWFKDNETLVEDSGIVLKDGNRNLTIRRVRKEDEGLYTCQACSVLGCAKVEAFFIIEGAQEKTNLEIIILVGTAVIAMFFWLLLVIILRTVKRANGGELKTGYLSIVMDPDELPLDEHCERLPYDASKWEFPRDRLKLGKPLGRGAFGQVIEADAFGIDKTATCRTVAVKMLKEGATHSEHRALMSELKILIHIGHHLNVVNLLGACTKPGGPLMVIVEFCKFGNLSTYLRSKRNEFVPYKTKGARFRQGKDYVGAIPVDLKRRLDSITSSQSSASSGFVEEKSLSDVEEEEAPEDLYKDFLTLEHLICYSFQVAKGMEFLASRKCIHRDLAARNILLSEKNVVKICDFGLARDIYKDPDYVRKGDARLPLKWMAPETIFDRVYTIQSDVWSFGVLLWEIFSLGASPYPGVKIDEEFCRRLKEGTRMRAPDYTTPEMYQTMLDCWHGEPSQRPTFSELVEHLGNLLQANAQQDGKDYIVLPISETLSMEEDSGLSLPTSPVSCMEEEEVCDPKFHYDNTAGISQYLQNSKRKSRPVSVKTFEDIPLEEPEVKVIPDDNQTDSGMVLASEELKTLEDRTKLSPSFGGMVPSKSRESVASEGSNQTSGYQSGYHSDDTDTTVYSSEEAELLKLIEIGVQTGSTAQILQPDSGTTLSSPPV

[5] = biological target: High affinity nerve growth factor receptor (Homo sapiens, UniProt P04629); assay: Inhibition of N-terminal His6-tagged human recombinant TrkA (440 to end residues) expressed in baculovirus infected insect Sf21 cells after 1 hr by Alphascreen assay
Sequence of High affinity nerve growth factor receptor (P04629 whole entry): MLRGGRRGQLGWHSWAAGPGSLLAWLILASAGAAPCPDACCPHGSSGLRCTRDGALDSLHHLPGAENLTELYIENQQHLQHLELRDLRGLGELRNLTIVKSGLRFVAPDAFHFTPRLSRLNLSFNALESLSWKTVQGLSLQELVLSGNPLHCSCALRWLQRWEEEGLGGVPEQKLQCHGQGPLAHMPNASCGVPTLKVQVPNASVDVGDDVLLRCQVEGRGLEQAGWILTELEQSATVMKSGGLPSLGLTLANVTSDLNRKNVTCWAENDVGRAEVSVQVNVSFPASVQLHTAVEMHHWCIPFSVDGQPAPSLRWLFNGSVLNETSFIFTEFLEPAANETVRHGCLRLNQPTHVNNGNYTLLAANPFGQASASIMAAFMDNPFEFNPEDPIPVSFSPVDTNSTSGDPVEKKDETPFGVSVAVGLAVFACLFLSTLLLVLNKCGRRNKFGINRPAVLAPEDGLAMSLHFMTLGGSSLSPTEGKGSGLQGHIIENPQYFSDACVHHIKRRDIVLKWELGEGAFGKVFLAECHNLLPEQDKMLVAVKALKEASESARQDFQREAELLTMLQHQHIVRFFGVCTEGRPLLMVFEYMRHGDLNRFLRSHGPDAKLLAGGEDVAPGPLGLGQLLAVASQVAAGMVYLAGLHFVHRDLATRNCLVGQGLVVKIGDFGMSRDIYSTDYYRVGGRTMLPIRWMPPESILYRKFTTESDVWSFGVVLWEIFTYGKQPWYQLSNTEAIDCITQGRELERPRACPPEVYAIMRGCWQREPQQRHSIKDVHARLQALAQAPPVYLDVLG

[6] = biological target: Tyrosine-protein kinase ABL1 (Homo sapiens, UniProt P00519); assay: Inhibition of recombinant c-Abl (unknown origin) after 1 hr by Alphascreen assay
Sequence of Tyrosine-protein kinase ABL1 (P00519 whole entry): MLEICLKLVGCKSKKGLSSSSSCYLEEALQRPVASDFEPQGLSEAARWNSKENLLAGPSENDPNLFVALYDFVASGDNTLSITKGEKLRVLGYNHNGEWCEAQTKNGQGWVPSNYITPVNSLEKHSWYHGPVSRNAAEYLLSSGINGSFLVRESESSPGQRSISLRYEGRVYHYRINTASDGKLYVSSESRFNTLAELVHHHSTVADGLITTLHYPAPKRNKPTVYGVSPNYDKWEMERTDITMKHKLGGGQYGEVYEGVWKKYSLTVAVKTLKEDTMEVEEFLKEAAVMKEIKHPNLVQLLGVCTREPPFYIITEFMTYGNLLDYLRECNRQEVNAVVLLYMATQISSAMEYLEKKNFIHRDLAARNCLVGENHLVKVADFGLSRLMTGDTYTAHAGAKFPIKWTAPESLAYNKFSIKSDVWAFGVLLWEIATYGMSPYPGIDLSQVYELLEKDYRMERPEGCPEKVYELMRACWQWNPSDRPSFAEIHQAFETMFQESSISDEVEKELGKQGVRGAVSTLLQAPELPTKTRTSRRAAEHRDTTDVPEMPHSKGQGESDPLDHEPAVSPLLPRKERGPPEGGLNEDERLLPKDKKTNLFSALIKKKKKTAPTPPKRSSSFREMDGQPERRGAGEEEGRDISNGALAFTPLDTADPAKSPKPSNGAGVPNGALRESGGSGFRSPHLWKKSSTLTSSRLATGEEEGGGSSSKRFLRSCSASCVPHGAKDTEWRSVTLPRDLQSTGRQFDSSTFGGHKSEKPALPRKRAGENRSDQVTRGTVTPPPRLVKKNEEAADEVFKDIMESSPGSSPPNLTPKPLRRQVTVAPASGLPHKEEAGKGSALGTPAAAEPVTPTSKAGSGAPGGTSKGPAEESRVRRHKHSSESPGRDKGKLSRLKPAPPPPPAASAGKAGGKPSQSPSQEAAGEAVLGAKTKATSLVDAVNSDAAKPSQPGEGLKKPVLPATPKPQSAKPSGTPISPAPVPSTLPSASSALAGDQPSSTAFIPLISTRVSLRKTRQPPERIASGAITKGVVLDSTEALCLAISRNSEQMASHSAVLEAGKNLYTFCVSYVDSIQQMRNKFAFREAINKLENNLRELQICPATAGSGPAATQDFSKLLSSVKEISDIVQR

[7] = biological target: Tyrosine-protein kinase Yes (Homo sapiens, UniProt P07947); assay: Inhibition of N-terminal His6-tagged human recombinant Yes expressed in baculovirus infected insect Sf21 cells after 1 hr by Alphascreen assay
Sequence of Tyrosine-protein kinase Yes (P07947 whole entry): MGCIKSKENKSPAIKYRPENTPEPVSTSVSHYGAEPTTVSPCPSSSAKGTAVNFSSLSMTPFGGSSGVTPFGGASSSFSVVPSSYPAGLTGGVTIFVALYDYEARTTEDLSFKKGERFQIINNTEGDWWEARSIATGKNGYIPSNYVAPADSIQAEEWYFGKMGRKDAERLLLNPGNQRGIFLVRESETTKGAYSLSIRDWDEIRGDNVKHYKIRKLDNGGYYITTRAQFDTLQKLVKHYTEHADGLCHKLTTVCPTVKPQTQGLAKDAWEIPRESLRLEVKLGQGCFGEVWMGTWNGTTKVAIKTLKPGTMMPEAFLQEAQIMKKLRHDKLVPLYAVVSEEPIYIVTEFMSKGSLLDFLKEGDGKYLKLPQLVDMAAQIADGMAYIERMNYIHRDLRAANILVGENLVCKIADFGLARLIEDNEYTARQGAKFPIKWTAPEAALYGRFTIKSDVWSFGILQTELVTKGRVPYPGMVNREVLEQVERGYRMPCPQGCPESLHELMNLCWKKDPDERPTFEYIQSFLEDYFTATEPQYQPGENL

Sequence of Mitogen-activated protein kinase 1 (P28482 whole entry, the tested form may be a part): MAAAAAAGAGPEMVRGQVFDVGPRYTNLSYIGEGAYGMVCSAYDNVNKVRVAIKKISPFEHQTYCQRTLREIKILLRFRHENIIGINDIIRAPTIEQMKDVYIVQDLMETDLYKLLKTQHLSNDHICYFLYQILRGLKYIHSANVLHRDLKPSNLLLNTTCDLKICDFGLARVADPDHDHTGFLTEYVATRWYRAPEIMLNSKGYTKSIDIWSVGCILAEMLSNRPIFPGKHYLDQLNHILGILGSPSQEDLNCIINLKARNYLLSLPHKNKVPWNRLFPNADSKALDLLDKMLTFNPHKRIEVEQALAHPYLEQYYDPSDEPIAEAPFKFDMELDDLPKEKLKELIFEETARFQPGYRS

Structure (SMILES) | pIC50 [1] | pIC50 [2] | pIC50 [3] | pIC50 [4] | pIC50 [5] | pIC50 [6] | pIC50 [7]
COc1ccc(-c2cnc3cncc(Nc4ccc(N5CCOCC5)cc4)c3n2)cc1 | 5.37 | 5.40 | 5.36 | 5.48 | 5.61 | 5.60 | 5.62
COc1cccc(Nc2cncc3ncc(-c4ccc(N5CCCCC5)cc4)nc23)c1 | 4.78 | 4.90 | 4.95 | 5.05 | 5.03 | 5.11 | 4.95
COc1cccc(NC(=O)Nc2cncc3nc(-c4ccccc4)cnc23)c1 | < 4.50 | < 4.00 | < 4.50 | < 4.00 | < 4.00 | < 4.00 | < 4.50
COc1cccc(Nc2cncc3nc(-c4ccc(N5CCCCC5)cc4)cnc23)c1 | < 4.00 | < 4.00 | < 4.00 | < 4.00 | < 4.00 | 5.10 | < 4.50
COc1cccc(Nc2nccc3nc(-c4ccccc4)cnc23)c1 | < 4.00 | < 4.00 | < 4.00 | < 4.00 | < 4.00 | < 4.00 | < 4.00
COc1ccc(-c2cnc3cncc(Nc4ccc(N5CCCCC5)cc4)c3n2)cc1 | 5.50 | 5.49 | 5.55 | 5.69 | 5.43 | 5.64 | 5.27
C=CCNC(=O)Nc1cncc2nc(-c3ccccc3)cnc12 | < 4.50 | < 4.00 | < 4.00 | < 4.50 | < 4.00 | < 4.00 | < 4.00
COc1cccc(NC(=O)Nc2nccc3nc(-c4ccccc4)cnc23)c1 | < 4.00 | < 4.00 | < 4.00 | < 4.00 | < 4.00 | < 4.00 | < 4.50
COc1ccc(-c2cnc3cncc(Nc4cc(OC)ccc4OC)c3n2)cc1 | 5.42 | 4.88 | 5.07 | 5.80 | 5.84 | 5.86 | 5.70
COc1cccc(Nc2cc3nc(-c4ccccc4)cnc3cn2)c1 | < 4.00 | < 4.00 | < 4.00 | < 4.00 | < 4.00 | < 4.00 | < 4.50
COc1ccc(NC(=O)Nc2cncc3nc(-c4ccccc4)cnc23)cc1 | 5.28 | 4.69 | 4.78 | < 4.00 | < 4.00 | 4.60 | 4.66
COc1ccccc1Nc1nccc2nc(-c3ccccc3)cnc12 | < 4.00 | < 4.00 | < 4.00 | < 4.50 | < 4.00 | 4.78 | 4.69
CCNC(=O)Nc1nccc2nc(-c3ccccc3)cnc12 | < 4.00 | < 4.00 | < 4.00 | < 4.00 | < 4.00 | 4.51 | < 4.00
Fc1ccc(Nc2cncc3nc(-c4ccccc4)cnc23)cc1Cl | < 4.00 | < 4.00 | < 4.00 | < 4.00 | < 4.00 | < 4.00 | < 4.50

Now from value to compound:

pIC50 [1] | pIC50 [2] | pIC50 [3] | pIC50 [4] | pIC50 [5] | pIC50 [6] | pIC50 [7] | Structure (SMILES)
5.85 | 6.04 | 5.31 | 5.96 | 5.24 | 5.58 | 5.09 | c1ccc(-c2cnc3c(Nc4ccc(N5CCCCC5)cc4)nccc3n2)cc1
< 4.00 | < 4.00 | < 4.00 | < 4.00 | < 4.00 | < 4.00 | 4.50 | COc1ccc(Nc2nccc3nc(-c4ccccc4)cnc23)cc1
5.07 | 5.09 | 5.08 | 5.21 | 5.27 | 5.28 | 5.29 | c1ccc(-c2cnc3cncc(Nc4ccc(N5CCOCC5)cc4)c3n2)cc1
5.69 | 5.59 | 5.58 | 5.81 | 5.49 | 5.67 | 5.25 | c1ccc(-c2cnc3cncc(Nc4ccc(N5CCCCC5)cc4)c3n2)cc1
5.84 | 5.14 | 4.93 | 5.70 | 5.84 | 5.87 | 5.99 | COc1ccc(-c2cnc3c(Nc4ccc(N5CCCCC5)cc4)nccc3n2)cc1
4.63 | 4.52 | 4.56 | 4.77 | 5.03 | 5.06 | 4.64 | c1ccc(-c2cnc3cnc(Nc4ccc(N5CCCCC5)cc4)cc3n2)cc1
< 4.00 | < 4.00 | < 4.00 | < 4.00 | < 4.00 | 4.65 | < 4.50 | c1ccc(Nc2cncc3nc(-c4ccc(N5CCCCC5)cc4)cnc23)cc1
< 4.00 | < 4.00 | < 4.00 | < 4.00 | < 4.00 | < 4.00 | < 4.00 | c1ccc(-c2cnc3cnc(Nc4ccc(N5CCOCC5)cc4)cc3n2)cc1
< 4.00 | < 4.00 | < 4.00 | 4.92 | 5.17 | 5.27 | 5.15 | COc1ccc(-c2cnc3c(Nc4ccc(N5CCOCC5)cc4)nccc3n2)cc1
4.91 | 4.93 | 4.51 | 4.96 | 5.11 | 5.16 | 5.05 | c1ccc(Nc2cncc3ncc(-c4ccc(N5CCCCC5)cc4)nc23)cc1
< 4.00 | < 4.00 | < 4.00 | < 4.00 | < 4.00 | < 4.00 | < 4.00 | C#Cc1cccc(Nc2nccc3nc(-c4ccccc4)cnc23)c1
< 4.00 | < 4.00 | < 4.00 | < 4.00 | < 4.00 | 4.89 | 4.57 | c1ccc(-c2cnc3cc(Nc4ccc(N5CCCCC5)cc4)ncc3n2)cc1
< 4.00 | < 4.00 | < 4.00 | 4.80 | 4.86 | 4.94 | 4.90 | c1ccc(-c2cnc3c(Nc4ccc(N5CCOCC5)cc4)nccc3n2)cc1
5.63 | 5.56 | 5.55 | 5.69 | 5.47 | 5.60 | 5.21 | c1ccc(-c2cnc3c(Nc4ccc(N5CCCCC5)cc4)cncc3n2)cc1
